# Results reported in US20100196430A1, “Controlled-released agricultural chemical formulation” (priority 2004, published 2010).
# Where two headings read alike, the source gives them in different places.
# Key:
# Assay type in all cases: in vivo
# [1] = system: yellow striped flea beetles; test: Test of use as a seed treatment agent by combining with synthetic pyrethroids (rapeseed); conditions: Inoculation 18 days after seeding; for No. of plant damage scars/3 plants, Average / No. of plant damage scars/3 plants, Repeat A / No. of plant damage scars/3 plants, Repeat B: 3 days in cage, 500 g of each active per 100 kg of rapeseed seeds; for Control rate: relative to untreated group
# Experimental: Wettable powder 2 obtained in Example 20 was dispersed in 2.8 ml of a solution (sticker solution), in which 5% by weight of polyvinyl alcohol (Gohsenol GL05S, Nippon Synthetic Chemical) and 1% by weight of a surfactant in the form of sodium lignin sulfonate ([…] RX-B, Takemoto Oil & Fat) were dissolved in 94% by weight of water, so as to contain […] of acetamiprid, 0.35 ml of this dispersion were placed in a vinyl bag provided with a zipper containing 8 g of rapeseed seeds, immediately after which the zipper was closed followed by mixing by shaking vigorously for 30 seconds to adhere the chemical to the rapeseed seeds. The seeds were then spread out in a thin layer in a vat and air-dried overnight at room temperature to obtain rapeseed seeds adhered with 500 g of acetamiprid per 100 kg of seeds.
# 1 g of cypermethrin wettable powder (active ingredient: […]) was dispersed in 1.3 ml of distilled water, and 0.65 ml of this dispersion (20 mg as cypermethrin) were placed in a vinyl bag provided with a zipper containing 8 g of rapeseed seeds adhered with 500 g of acetamiprid per 100 kg of seeds, immediately after which the zipper was closed followed by mixing by shaking vigorously for 30 seconds to adhere the chemical to the rapeseed seeds. The seeds were then spread out in a thin layer in a vat and air-dried for 1 to 2 hours at room temperature followed by again placing in a vinyl bag provided with a zipper, adding 0.65 ml of the aforementioned dispersion and repeating the same procedure. These seeds were then spread out in a thin layer in a vat followed by allowing to air dry overnight at room temperature to obtain rapeseed seeds adhered with 500 g of cypermethrin and 500 g of acetamiprid per 100 kg of seeds.
# In addition, wettable powder 2 obtained in Example 20 was dispersed in 1.1 g of bifenthrin SC (active ingredient: 7.2% by weight) so as to contain 80 mg of acetamiprid, and 0.55 ml of this dispersion (40 mg as bifenthrin and 40 mg of acetamiprid) were placed in a vinyl bag provided with a zipper containing 8 g of rapeseed seeds, followed immediately by mixing by shaking vigorously for 30 seconds to adhere the chemical to the seeds. The seeds were then spread out in a thin layer in a vat and air-dried overnight at room temperature to obtain rapeseed seeds adhered with 500 g of bifenthrin and 500 g of acetamiprid per 100 kg of seeds.
# The resulting seeds were planted in a No. 2 flower pot containing alluvial soil and cultivated in a greenhouse. Eighteen days after seeding, rapeseed seedlings were transferred to a cage in which 100 adult yellow striped flea beetles had been released, and after allowing to stand for 3 days, the number of plant damage scars caused by the adult yellow striped flea beetles was counted for three plants in each test group. For the control, similar tests were carried out in the case of treating with 500 g of wettable powder 2, cypermethrin or bifenthrin alone per 100 kg of seeds, and in the case of non-treatment. Control rate (%)=((no. of scars of untreated group−no. of scars of treated group)/(no. of scars of untreated group))×100.
# [2] = system: Nephotettix cincticeps; test: Test of use as a paddy treatment agent by seedling box drench treatment; conditions: for mortality at 0.03 ppm / mortality at 0.08 ppm / mortality at 0.12 ppm: Nephotettix cincticeps, soil, read-out: Insect mortality rate
# Experimental: Wettable powder 4 obtained in Example 22 was diluted with water to a predetermined concentration to prepare a chemical liquid. 10 ml per tray of the chemical liquid was dropped onto the surface of soil containing seedlings having a height of about 10 cm cultivated in small plastic trays filled with granular planting soil using a pipette. Following chemical treatment, the trays were covered with a cylindrical cage and 6 two-instar Nephotettix cincticeps were released inside followed by counting the number of […] at 3 and 7 days after releasing the insect pests. For the control, similar tests were carried out for the case of treating with imidacloprid, and in the case of non-treatment. The control imidacloprid was sprayed onto the plants after adjusting to 5% by weight in dimethylformamide containing 1.5% by weight of Tween 20 and diluting with water.
# Corrected insecticidal rate (%)=((survival rate in untreated group−survival rate in treated group)/survival rate in untreated group)×100
# [3] = system: yellow striped flea beetles; test: Test of use as a cell tray drench treatment agent (Chinese cabbage); conditions: for No. of plant damage scars/4 plants: counted 6 days after release
# Experimental: 3.57 g of wettable powder 2 obtained in Example 20 were dispersed in 1 liter of water to prepare a chemical liquid. 0.5 ml of chemical liquid per plant were dropped onto Chinese cabbage seedlings at the 4 to 4.5 leaf stage cultured in cell trays from above using a pipette. On the day following chemical treatment, the treated seedlings were planted in No. 6 flower pots containing Kuroboku soil and cultivated in a greenhouse. Each pot was covered with a cylindrical cage at 2, 14 and 28 days after planting, 10 adult yellow striped flea beetles were released inside the cages, and the numbers of plant damage scars caused by the adult yellow striped flea beetles were counted for four pots in each test group 6 days after releasing the insect pests. For the control, similar tests were carried out in the case of treating with commercially available bifenthrin SC and in the case of non-treatment.
smiles,measurement,setting,value
"CC1(C)C(C=C(Cl)Cl)C1C(=O)OC(C#N)c1cccc(Oc2ccccc2)c1 (centres unmarked) [Cypermethrin, cypermethrin]","No. of plant damage scars/3 plants, Average",[1],269
same,"No. of plant damage scars/3 plants, Repeat A",[1],296
same,"No. of plant damage scars/3 plants, Repeat B",[1],241
same,Control rate,[1],3.6%
"O=[N+]([O-])NC1=NCCN1Cc1ccc(Cl)nc1 [Imidacloprid, imidacloprid]",Corrected insecticidal rate,"[2]; Concentration 0.03 ppm, After 3 days",83%
same,Corrected insecticidal rate,"[2]; Concentration 0.03 ppm, After 7 days",100%
same,Corrected insecticidal rate,"[2]; Concentration 0.08 ppm, After 3 days",63%
same,Corrected insecticidal rate,"[2]; Concentration 0.08 ppm, After 7 days",83%
same,Corrected insecticidal rate,"[2]; Concentration 0.12 ppm, After 3 days",100%
same,Corrected insecticidal rate,"[2]; Concentration 0.12 ppm, After 7 days",100%
same,mortality at 0.03 ppm,"[2]; 72 h, Concentration 0.03 ppm, After 3 days",83%
same,mortality at 0.08 ppm,"[2]; 72 h, Concentration 0.08 ppm, After 3 days",63%
same,mortality at 0.12 ppm,"[2]; 72 h, Concentration 0.12 ppm, After 3 days",100%
same,mortality at 0.03 ppm,"[2]; 168 h, Concentration 0.03 ppm, After 7 days",100%
same,mortality at 0.08 ppm,"[2]; 168 h, Concentration 0.08 ppm, After 7 days",83%
same,mortality at 0.12 ppm,"[2]; 168 h, Concentration 0.12 ppm, After 7 days",100%
"Cc1c(COC(=O)[C@@H]2[C@H](/C=C(\Cl)C(F)(F)F)C2(C)C)cccc1-c1ccccc1 (racemic) [Bifenthrin, bifenthrin]",Control rate,[3]; After 2 days,87.1%
same,Control rate,[3]; After 14 days,70.6%
same,Control rate,[3]; After 28 days,40.7%
same,No. of plant damage scars/4 plants,"[3]; beetles released After 2 days from planting, 0.5 ml of chemical liquid per plant",4
same,No. of plant damage scars/4 plants,[3]; beetles released After 14 days from planting,103
same,No. of plant damage scars/4 plants,[3]; beetles released After 28 days from planting,934
same,"No. of plant damage scars/3 plants, Average",[1],270
same,"No. of plant damage scars/3 plants, Repeat A",[1],306
same,"No. of plant damage scars/3 plants, Repeat B",[1],234
same,Control rate,[1],3.2%
